According to patent US7179887B2, “Guinea pig proteinase-activated receptor 4 and its activating peptide” (Ortho-McNeil Pharmaceutical, Inc., priority 2001, dated 2007):
Each block holds one compound with its values, some of them ahead of it. Residues, ends and D or L forms follow the SMILES beside them. No end group written: not given here.

What was measured:
[1] = system: human gel filtered platelets; details: for induction of human platelet aggregation / activation of human PAR-4 (in words): human platelets
Procedure: (§1) Human platelet-rich plasma (PRP) concentrate (Biological Specialties, Inc., Colmar, Pa.) was gel-filtered (Sepharose 2B, Pharmacia, Inc.) in Tyrode's buffer (140 mM NaCl, 2.7 mM KCl, 12 mM NaHCO3, 0.76 mM Na2HPO4, 5.5 mM dextrose, 5.0 mM Hepes, and 2 mg/ml BSA, pH 7.4). Guinea pigs (400–800 g) were anesthetized and blood drawn via an intraarterial catheter. PRP was prepared by centrifugation at 200×g for 10 min. Guinea pig PRP was gel-filtered as above. Gel-filtered platelets were diluted with Tyrode's buffer (143,000 platelets/μl, per well) and 2 mM CaCl2 in a 96-well microtiter plate. Platelet aggregation was initiated by the addition of the guinea pig PAR-4 AP (SFPGQA-NH2, SEQ ID No.:7) peptide. The assay plate was gently mixed constantly. Aggregation was monitored at 0 and 5 min after agonist addition in a microplate reader (Molecular Devices) by optical density at 650 nm (ΔSOFT). Aggregation was calculated as the decrease in optical density between the two measurements. All samples were tested in duplicate wells on the same plate.

[2] = system: guinea pig gel filtered platelets
Procedure: as §1

[3] = system: human gel filtered platelets; details: background statement; cited from earlier work
[4] = system: guinea pig gel filtered platelets; details: Nishikawa et al. (2000); cited from earlier work

Compound: GYPGQV-NH2 [human PAR-4 AP]
induction of human platelet aggregation / activation of human PAR-4 (in words) [1]: induced human platelet aggregation

Compound: SFLLRN-NH2 [human PAR-1 AP]
induction of human platelet aggregation / activation of human PAR-4 (in words) [1]: induced human platelet aggregation | induction of guinea pig platelet aggregation / response of guinea pig PAR-4 (in words) ([2]; isolated guinea pig platelets): induced guinea pig platelet aggregation | aggregation of human platelets by exogenous activating peptide (background) [3]: aggregation of human platelets can be reproduced

EC50 [1]: 140 ± 2.5 µM | EC50 [2]: 174 ± 14.6 µM
Compound: C[C@H](NC(=O)[C@H](CCC(N)=O)NC(=O)CNC(=O)[C@@H]1CCCN1C(=O)[C@H](Cc1ccccc1)NC(=O)[C@@H](N)CO)C(N)=O [guinea pig PAR-4 AP, SFPGQA-NH2] (H-SFPGQA-NH2; N-terminus assumed)
induction of human platelet aggregation / activation of human PAR-4 (in words) [1]: cross-activates human PAR-4

Compound: GYPGKF-NH2 [murine PAR-4 AP]
response of guinea pig platelets to activating peptide (literature) [4]: do not respond
